Read-outs that look alike come from different tables or passages of the source.
Experiments:
Assay type in all cases: in vivo
horses [1] = assay: Coagulation effects study, IV BID or TID for 9 days: clinical signs
Procedure: The purpose of this study was to evaluate the effects of metamizole on coagulation parameters and pharmacokinetic parameters when administered intravenously to horses for 9 days at doses of 0 mg/kg (0×), 30 mg/kg (1×), 60 mg/kg (2×), and 90 mg/kg (3×) of body weight. Doses of 0×, 1×, 2×, and 3× were administered twice daily (BID), every 12 hours±120 min. Doses of 1× and 2× were administered three times daily (TID), every 8 hours±120 min. Metamizole plasma concentrations were assessed in the 1×BID, 3×BID, 1×TID, and 2×TID treatments groups to evaluate for evidence of accumulation.
The investigational drug was a sterile injectable formulation of dipyrone (Zimeta®, Corden Pharma, Caponago, Italy) (500 mg/mL) in 100 mL glass bottles. The placebo was sterile injectable saline (0.9% Saline, Nova-Tech Inc, Grand Island, NE) (0.9% sodium chloride) in 500 mL plastic bottles labeled for veterinary use. Dipyrone treatment groups were 30 mg/kg/dose (1×) administered twice daily (BID), 1× administered three times daily (TID), 60 mg/kg/dose (2×) BID, 2×TID, and 90 mg/kg/dose (3×) BID. Placebo treatment group, (0×) BID, were saline administered at a volume to match the 1× dipyrone group. The dose was calculated based on body weight and administered for nine consecutive days (Days 1-9). Due to the large volume of the injection at the higher test intervals, treatment was administered via indwelling intravenous catheters. Intravenous catheters were placed using standard techniques. Horses were sedated with xylazine (XylaMed™, VetOne, MWI, Boise, Id.) (0.6 mg/kg, IV) and the skin was desensitized with subcutaneous injection of lidocaine (Lidocaine 2%, VetOne, MWI, Boise, Id.). Intravenous catheters were replaced at the discretion of the study director and were maintained with heparinized saline flush prior to, and following, dose administration.
Horses were acclimated to the facility for 14 days prior to start of the treatment phase. […] On Day −1, thirty-two horses were randomized by the study statistician and moved to their assigned pens. On Day −1 (baseline), Day 4, and Day 10 horses had blood collected for a coagulation panel. A physical exam was performed prior to study start and on Day 10.

horses [2] = assay: Margin of safety study, IV three times daily for 9 days: necropsy, organ weights, histopathology; conditions: for Liver (absolute weight) LS Means / Liver (relative to body weight) LS Means: necropsy
Procedure: (§1) A study was conducted to evaluate the margin of safety of metamizole when administered intravenously to horses for 9 days at doses of 0 mg/kg (0×), 30 mg/kg (1×), 60 mg/kg (2×), and 90 mg/kg (3×) of body weight three times daily (TID), every 8 hours±30 min.
(§2) Treatment phase involved administration of the investigational drug or placebo. The investigational drug was a sterile injectable formulation of dipyrone (Zimeta™, Corden Pharma, Caponago, Italy) (500 mg/mL) in 100 mL glass bottles. The placebo was sterile injectable saline (Nova-Tech Inc, Grand Island, NE) (0.9% sodium chloride) in 500 mL plastic bottles labeled for veterinary use. Dipyrone treatment groups were 30 mg/kg (1×), 60 mg/kg (2×), and 90 mg/kg (3×). Placebo treatment group was saline administered at a volume to match the 3× dipyrone group (0×). The dose was calculated based on body weight and administered three times daily for nine consecutive days. Due to the large volume of injection at the higher dose groups, treatment was administered via indwelling intravenous (IV) catheters. Intravenous catheters were placed using standard techniques. Horses were sedated with xylazine (AnaSed® LA, VetOne, MWI, Boise, Id.) and the skin was desensitized with subcutaneous injection of lidocaine (VetOne, MWI, Boise, Id.). Intravenous catheters were replaced at the discretion of the study director and were maintained with heparinized saline flush prior to and following dose administration.
(§3) Randomization occurred on Study Day −1. […] .
For continuous endpoints with single post-treatment measures (organ weight and organ weight relative to body weight), analysis of variance (ANOVA) was used to evaluate a model including treatment, sex, and treatment by sex interaction as fixed effects. If treatment by sex interaction was significant, within sex pair-wise comparison of each treatment group versus placebo using linear contrasts were performed. If treatment by sex interaction was not significant and treatment effect was significant, pair-wise comparison of each treatment group versus placebo for pooled sex were performed. In particular, sex specific organ weights (ovaries) were analyzed by ANOVA including only treatment as a fixed effect.

horses [3] = conditions: 8 horses per group
Procedure: as §1, §2, §3
All 32 horses were acclimated prior to study initiation and started the treatment phase healthy. During the study, numerous horses in all groups including placebo developed clinical signs of pneumonia likely due to exposure and incubation of respiratory pathogens prior to the start of the treatment phase. The mean time to development of pneumonia was 6.9 days with a range of 4.3 to 8.3 days. […] The other 31 horses completed the study. At the second gastroscopy examination, completed just prior to the treatment phase, one horse was noted to have purulent material draining from the guttural pouch. […]

[4] = 1X BID, 30 mg/kg IV twice daily, n = 6
[5] = 1X TID, 30 mg/kg IV three times daily, n = 4
[6] = 2X BID, 60 mg/kg IV twice daily, n = 6
[7] = 2X TID, 60 mg/kg IV three times daily, n = 6
[8] = 3X BID, 90 mg/kg IV twice daily, n = 6

Cc1c(N(C)CS(=O)(=O)O)c(=O)n(-c2ccccc2)n1C [dipyrone, [(2,3-dihydro-1,5-dimethyl-3-oxo-2-phenyl-1H-pyrazol-4-yl)methylamino] methanesulfonic acid]
Depression, number of horses (horses [1]; [4]): 0 | Dermatitis, number of horses (horses [1]; [4]): 0 | Minor gastrointestinal signs or inappetence, number of horses (horses [1]; [4]): 2 | Minor respiratory signs (nasal discharge and or cough), number of horses (horses [1]; [4]): 1 | Ocular discharge, number of horses (horses [1]; [4]): 0 | Phlebitis and other catheter-related changes to jugular vein, number of horses (horses [1]; [4]): 2 | Suture site abscesses, number of horses (horses [1]; [4]): 1 | Depression, number of horses (horses [1]; [5]): 0 | Dermatitis, number of horses (horses [1]; [5]): 0 | Minor gastrointestinal signs or inappetence, number of horses (horses [1]; [5]): 1 | Minor respiratory signs (nasal discharge and or cough), number of horses (horses [1]; [5]): 0 | Ocular discharge, number of horses (horses [1]; [5]): 0 | Phlebitis and other catheter-related changes to jugular vein, number of horses (horses [1]; [5]): 1 | Suture site abscesses, number of horses (horses [1]; [5]): 0 | Depression, number of horses (horses [1]; [6]): 0 | Dermatitis, number of horses (horses [1]; [6]): 0 | Minor gastrointestinal signs or inappetence, number of horses (horses [1]; [6]): 2 | Minor respiratory signs (nasal discharge and or cough), number of horses (horses [1]; [6]): 0 | Ocular discharge, number of horses (horses [1]; [6]): 1 | Phlebitis and other catheter-related changes to jugular vein, number of horses (horses [1]; [6]): 3 | Suture site abscesses, number of horses (horses [1]; [6]): 0 | Depression, number of horses (horses [1]; [7]): 1 | Dermatitis, number of horses (horses [1]; [7]): 0 | Minor gastrointestinal signs or inappetence, number of horses (horses [1]; [7]): 2 | Minor respiratory signs (nasal discharge and or cough), number of horses (horses [1]; [7]): 0 | Ocular discharge, number of horses (horses [1]; [7]): 0 | Phlebitis and other catheter-related changes to jugular vein, number of horses (horses [1]; [7]): 2 | Suture site abscesses, number of horses (horses [1]; [7]): 1 | Depression, number of horses (horses [1]; [8]): 0 | Dermatitis, number of horses (horses [1]; [8]): 1 | Minor gastrointestinal signs or inappetence, number of horses (horses [1]; [8]): 1 | Minor respiratory signs (nasal discharge and or cough), number of horses (horses [1]; [8]): 1 | Ocular discharge, number of horses (horses [1]; [8]): 0 | Phlebitis and other catheter-related changes to jugular vein, number of horses (horses [1]; [8]): 3 | Suture site abscesses, number of horses (horses [1]; [8]): 0 | Abnormal clinical signs in the treatment period (horses [1]; all treatment groups (30-90 mg/kg IV BID or TID, 9 days)): none were considered treatment related | Liver (absolute weight) LS Means (horses [2]; 1X, 30 mg/kg IV every 8 hours): 6280.00 g | Liver (relative to body weight) LS Means (horses [2]; 1X, 30 mg/kg IV every 8 hours): 13.69 | Liver (absolute weight) LS Means (horses [2]; 2X, 60 mg/kg IV every 8 hours): 6892.50 g | Liver (relative to body weight) LS Means (horses [2]; 2X, 60 mg/kg IV every 8 hours): 15.28 | Liver (absolute weight) LS Means (horses [2]; 3X, 90 mg/kg IV every 8 hours): 7765.21 g | Liver (relative to body weight) LS Means (horses [2]; 3X, 90 mg/kg IV every 8 hours): 16.38 | Effect on absolute and relative liver weights (horses [2]; 30, 60, 90 mg/kg IV every 8 hours for 9 days vs placebo): statistically significant increase in absolute and relative liver weights | Renal, hepatic and gastrointestinal gross necropsy and histopathology evaluation (horses [2]; up to 90 mg/kg IV every 8 hours for 9 days): no significant findings | Nasal Discharge, number of horses (horses [3]; 1X, 30 mg/kg IV every 8 hours): 1 | Nasal Discharge, number of horses (horses [3]; 2X, 60 mg/kg IV every 8 hours): 2 | Nasal Discharge, number of horses (horses [3]; 3X, 90 mg/kg IV every 8 hours): 1
